One test addresses T1, PI3Kα (Homo sapiens, UniProt P42336).
T1 construct: Full length p110 subunits of PI3K α, β and δ, N-terminally labeled with polyHis tag; polyHis (N); made in house; host or cells: Sf9 insect cells (baculovirus)
Nature of the test: In vitro PI3K AlphaScreen assay. The test is classed as biochemical. The settings on record: average if run more than once.

For the next test, the target named is T2, mTOR (Homo sapiens, UniProt P42345).
T2 construct: purchased Invitrogen (Carlsbad, Calif.)
Description: In vitro mTOR assay (Lanthascreen). Type of test: biochemical. The settings on record: average if run more than once. An outline of the steps: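 mTOR activity measured by TR-FRET as Thr46 phosphorylation of GFP-4E-BP1, detected with Tb-labelled anti-phospho-4E-BP1 [T46] antibody after EDTA stop. Final 50 ng/mL mTOR, 400 nM GFP-4E-BP1, 7 μM ATP in HEPES pH 7.5 with 10 mM MnCl2; 1 h, room temperature. 10-point 1:3 compound series.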

The subject of test [1] is phosphorylation of Akt at Serine 473. Nature of the test: pAkt AlphaScreen (U87 cell). Type of test: cell-based. The settings on record: Homo sapiens, U-87 MG; U87 MG cells, pAkt Ser473; average. The protocol: pAkt Alphascreen (U87 Cell)
The pAkt AlphaScreen® assay (PerkinElmer, Waltham, Mass.) determines whether there is phosphorylation of Akt at Serine 473 by recruitment of a phosphospecific antibody. This assay was performed using U87 MG cells. The U87 growth media consists of MEM (Gibco, Carlsbad, Calif.) supplemented with 10% FBS (Gibco,), 1× Non-Essential Amino Acids (Gibco,) and 1× Penicillin/Streptomycin/Glutamine (Gibco). The cells were maintained weekly using 0.05% Trypsin (Gibco) and replated in 150 mm TC-Treated Culture Dishes (Corning, Corning, N.Y.).
The first day of the assay, the adherent cells were trypsinized, media was added to the loose cells and cells were mixed to a homogenous mixture. 0.5 ml of the homogenous mixture was counted on the Beckman Coulter® Vi-CELL™ XR (Fullerton, Calif.). 50 frames of cells were counted and the number of viable cells was determined. The cells were then diluted to 0.25 million cells per ml, and centrifuged at 200 rcf for 5 minutes. The media was removed and the cells were reconstituted in fresh media for plating. The cells were plated at 20 μl per well on the PerkinElmer® FlexDrop PLUS in Low Volume 384 Well White Tissue Culture Plates (Corning) with a final cell density of 5K cells per well. The plates were incubated overnight at 37° Celsius, 5% CO2.
On the second day, the compound plates were prepared, the cells were treated with compound and the pAkt reaction mix was added to the cell lysate. 384 well compound plates were prepared containing 1 μl of compound per well starting at 5 mM and diluted 1:2 across the row, resulting in a 22 well serial dilution. 39 μl of growth media was added to the compound plate in rows 1-22 using the PerkinElmer® FlexDrop PLUS resulting in a DMSO concentration of 2.5%. The cell plates and diluted compound plates were put onto the VELOCITY11™ VPREP™ 384 ST where the compound plate was mixed and 5 μl of serially diluted compound or controls was added to the cell plate. The final concentration of the compounds was 25 μM serially diluted to 11.9 pM in 0.5% DMSO. The cell plates were then incubated with compound for two hours at 37° Celsius, 5% CO2. After two hours, the media in the cell plates was aspirated using the BioTek® ELx405HT plate washer (Winooski, Vt.) removing the majority of media and compound without disturbing the adherent U87 cells. The following assay reagents are components of the SureFire® Akt (Ser 473) Phosphorylation 50K Point Kit (TGR BioSciences, Adelaide, Austalia) and an IgG Detection Kit (PerkinElmer, Waltham, Mass.). 5 μl of 1× Lysis Buffer was added to each well using the PerkinElmer® FlexDrop PLUS. The plates were then incubated at room temperature on a shaker for ten minutes. The AlphaScreen® reaction was prepared under low light conditions (subdued or green light) including p-Akt (Ser 473) Reaction Buffer, Dilution Buffer, Activation Buffer, Acceptor Beads and Donor Beads at a ratio of 40:20:10:1:1 respectively. The AlphaScreen® reaction was added to the cell lysate at 6 μl per well using the PerkinElmer® FlexDrop PLUS. The plates were placed in a humid environment to reduce edge effects and incubated overnight at room temperature with restricted air flow in the dark.
On the final day of the experiment, the plates were read on the PerkinElmer® EnVision™ 2103 Multilable Reader using the standard AlphaScreen® readout. The POC is calculated and the data is analyzed to report the IC50 IP for pAkt at Serine 473.
Activity data for the compounds tested in the PI3K cell based Akt assay is provided in Table 2 under the column heading U87

T2 sequence (P42345 1360-2549 limits assumed): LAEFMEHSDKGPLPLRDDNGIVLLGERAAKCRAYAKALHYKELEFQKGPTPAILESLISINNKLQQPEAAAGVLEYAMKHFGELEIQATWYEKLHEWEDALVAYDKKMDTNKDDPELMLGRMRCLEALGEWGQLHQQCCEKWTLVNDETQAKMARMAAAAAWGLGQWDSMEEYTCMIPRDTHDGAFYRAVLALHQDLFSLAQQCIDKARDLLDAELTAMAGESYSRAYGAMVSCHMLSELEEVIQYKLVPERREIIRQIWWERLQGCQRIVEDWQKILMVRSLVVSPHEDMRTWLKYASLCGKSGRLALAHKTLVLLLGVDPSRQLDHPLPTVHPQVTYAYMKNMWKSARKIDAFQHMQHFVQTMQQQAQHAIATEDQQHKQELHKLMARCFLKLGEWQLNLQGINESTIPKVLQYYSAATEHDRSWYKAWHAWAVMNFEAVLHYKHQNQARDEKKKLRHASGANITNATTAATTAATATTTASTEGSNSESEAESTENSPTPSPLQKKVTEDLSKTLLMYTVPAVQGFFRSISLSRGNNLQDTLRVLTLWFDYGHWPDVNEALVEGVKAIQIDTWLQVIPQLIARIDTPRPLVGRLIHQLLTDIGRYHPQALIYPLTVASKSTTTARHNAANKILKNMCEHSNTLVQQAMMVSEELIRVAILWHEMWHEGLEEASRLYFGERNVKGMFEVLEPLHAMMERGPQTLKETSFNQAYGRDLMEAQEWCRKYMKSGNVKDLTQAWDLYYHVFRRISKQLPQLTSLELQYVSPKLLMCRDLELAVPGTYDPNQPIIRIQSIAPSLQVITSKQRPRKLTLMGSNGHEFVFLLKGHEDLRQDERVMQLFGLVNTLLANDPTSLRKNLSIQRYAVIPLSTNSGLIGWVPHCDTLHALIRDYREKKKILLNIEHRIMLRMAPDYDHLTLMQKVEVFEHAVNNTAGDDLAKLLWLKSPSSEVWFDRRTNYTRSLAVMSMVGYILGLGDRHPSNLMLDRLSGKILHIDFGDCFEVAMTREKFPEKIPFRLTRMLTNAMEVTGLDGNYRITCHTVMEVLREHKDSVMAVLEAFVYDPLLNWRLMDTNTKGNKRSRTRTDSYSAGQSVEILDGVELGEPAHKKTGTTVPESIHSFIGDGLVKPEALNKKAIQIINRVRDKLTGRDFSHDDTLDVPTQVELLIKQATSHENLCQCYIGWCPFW
T1 sequence (P42336 whole entry): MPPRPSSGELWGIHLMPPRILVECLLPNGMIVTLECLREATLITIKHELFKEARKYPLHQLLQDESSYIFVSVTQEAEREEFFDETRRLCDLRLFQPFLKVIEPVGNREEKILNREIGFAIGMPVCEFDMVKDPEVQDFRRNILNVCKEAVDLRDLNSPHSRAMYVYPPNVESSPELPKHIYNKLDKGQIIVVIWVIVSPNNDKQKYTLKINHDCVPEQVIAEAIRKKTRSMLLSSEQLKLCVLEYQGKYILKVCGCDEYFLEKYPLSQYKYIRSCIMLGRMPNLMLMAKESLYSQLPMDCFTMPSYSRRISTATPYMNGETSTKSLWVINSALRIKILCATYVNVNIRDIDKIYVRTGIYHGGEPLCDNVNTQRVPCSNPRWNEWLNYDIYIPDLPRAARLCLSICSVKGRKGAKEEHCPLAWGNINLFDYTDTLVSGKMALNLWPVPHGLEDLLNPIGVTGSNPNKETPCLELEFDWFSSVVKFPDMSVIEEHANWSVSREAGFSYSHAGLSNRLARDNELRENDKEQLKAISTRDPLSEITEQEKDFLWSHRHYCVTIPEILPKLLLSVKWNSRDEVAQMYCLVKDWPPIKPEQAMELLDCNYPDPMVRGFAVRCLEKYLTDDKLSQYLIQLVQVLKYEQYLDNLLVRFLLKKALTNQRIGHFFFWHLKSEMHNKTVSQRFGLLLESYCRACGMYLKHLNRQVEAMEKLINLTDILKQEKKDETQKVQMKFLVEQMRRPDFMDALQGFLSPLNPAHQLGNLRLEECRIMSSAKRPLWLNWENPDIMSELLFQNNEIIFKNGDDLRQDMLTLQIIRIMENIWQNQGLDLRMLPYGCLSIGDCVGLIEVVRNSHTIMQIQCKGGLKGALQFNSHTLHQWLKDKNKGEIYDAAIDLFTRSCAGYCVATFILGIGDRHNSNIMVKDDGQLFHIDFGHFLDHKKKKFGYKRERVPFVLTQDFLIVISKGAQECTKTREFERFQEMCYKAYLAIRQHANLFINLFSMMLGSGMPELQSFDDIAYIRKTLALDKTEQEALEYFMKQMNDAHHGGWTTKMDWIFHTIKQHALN
T1 sequence (P27986 whole entry partner): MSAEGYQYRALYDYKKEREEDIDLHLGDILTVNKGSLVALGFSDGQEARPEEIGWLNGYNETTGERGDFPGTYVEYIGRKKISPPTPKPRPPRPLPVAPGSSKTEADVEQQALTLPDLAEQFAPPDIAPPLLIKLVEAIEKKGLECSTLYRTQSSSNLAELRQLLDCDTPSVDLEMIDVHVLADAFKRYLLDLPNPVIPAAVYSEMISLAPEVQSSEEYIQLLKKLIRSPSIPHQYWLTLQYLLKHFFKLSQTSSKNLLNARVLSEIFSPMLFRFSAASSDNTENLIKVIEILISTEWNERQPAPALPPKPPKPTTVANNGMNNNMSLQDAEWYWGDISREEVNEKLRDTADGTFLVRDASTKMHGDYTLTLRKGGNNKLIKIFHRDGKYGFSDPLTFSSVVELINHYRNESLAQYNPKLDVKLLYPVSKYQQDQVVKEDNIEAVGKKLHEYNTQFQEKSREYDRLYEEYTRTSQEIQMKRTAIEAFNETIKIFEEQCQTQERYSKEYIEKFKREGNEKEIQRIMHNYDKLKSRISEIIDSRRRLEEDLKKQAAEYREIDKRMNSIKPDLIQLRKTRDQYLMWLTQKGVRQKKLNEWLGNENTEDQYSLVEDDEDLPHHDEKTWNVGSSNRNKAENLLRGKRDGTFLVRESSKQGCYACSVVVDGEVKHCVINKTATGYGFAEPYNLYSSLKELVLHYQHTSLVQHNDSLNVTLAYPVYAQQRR

As for `O=S1(=O)CCC(COc2ccnc3ccc(-c4cnc(Cl)c(NS(=O)(=O)c5ccc(F)cc5)c4)cc23)CC1` [Example 113, N-(2-Chloro-5-(4-((tetrahydro-2H-thiopyran-1,1-dioxide-4-yl)methoxy)quinolin-6-yl)pyridin-3-3-yl)-4-fluorobenzenesulfonamide], on PI3Kα, the Ki was 0.0016 µM. In addition, the results for the IC50 (at mTOR; in test [1]) were 0.0146 µM and 0.0444 µM, respectively.

Regarding `CS(=O)(=O)Nc1cc(-c2ccc3nccc(-c4cccnc4)c3c2)cnc1Cl` [Example 116, N-(2-Chloro-5-(4-(pyridin-3-yl)quinolin-6-yl)pyridin-3-yl)methanesulfonamide], at PI3Kα, the Ki worked out at 0.0013 µM. The IC50 against mTOR was found to be 0.0029 µM; in test [1], 0.019 µM.

For the compound `CS(=O)(=O)Nc1cc(-c2ccc3nccc(-c4cccnc4)c3c2)cnc1-c1cccnc1` [Example 117, N-(5-(4-(Pyridin-3-yl)quinolin-6-yl)-2,3′-bipyridin-3-yl)methanesulfonamide], at PI3Kα, the Ki stood at 0.0053 µM. Moreover, the IC50 against mTOR is 0.0015 µM; in test [1] it was 0.255 µM.

As to `CS(=O)(=O)Nc1cc(-c2ccc3nccc(-c4ccncc4)c3c2)cnc1Cl` [Example 118, N-(2-Chloro-5-(4-(pyridin-4-yl)quinolin-6-yl)pyridin-3-yl)methanesulfonamide], the Ki on PI3Kα came to 0.0011 µM. Also, the IC50 on mTOR was 0.0012 µM; in test [1], 0.0127 µM.

At PI3Kα, `COc1ncc(-c2ccc3nccc(N4CCOCC4)c3c2)cc1NS(C)(=O)=O` [Example 119, N-(2-Methoxy-5-(4-morpholinoquinolin-6-yl)pyridin-3-yl)methanesulfonamide] yielded a Ki of 0.0047 µM. Besides, the results for the IC50 (against mTOR; in test [1]) were 0.0176 µM and 0.0448 µM, respectively.

`COc1ncc(-c2ccc3nccc(-c4ccncc4)c3c2)cc1NS(C)(=O)=O` [Example 120, N-(2-Methoxy-5-(4-(pyridin-4-yl)quinolin-6-yl)pyridin-3-yl)methanesulfonamide]: the Ki at PI3Kα amounted to 0.0035 µM. In addition, the IC50 at mTOR was found to be 0.0048 µM; in test [1] it was 0.0147 µM.

Take `CN(C)S(=O)(=O)Nc1cc(-c2ccc3nccc(N4CCOCC4)c3c2)cnc1Cl` [Example 122, N′-(2-Chloro-5-(4-(4-morpholinyl)-6-quinolinyl)-3-pyridinyl)-N,N-dimethylsulfamide]: the Ki at PI3Kα is 0.0065 µM. Also, the values for the IC50 (on mTOR; in test [1]) were 0.0182 µM and 0.0163 µM, respectively.

`COCCN(C)S(=O)(=O)Nc1cc(-c2ccc3nccc(N4CCOCC4)c3c2)cnc1Cl` [Example 123, N′-(2-Chloro-5-(4-(4-morpholinyl)-6-quinolinyl)-3-pyridinyl)-N-(2-methoxyethyl)-N-methylsulfamide] displayed an inhibition constant (Ki) at PI3Kα of 0.0054 µM. Moreover, the IC50 against mTOR worked out at 0.0169 µM; in test [1], 0.037 µM.

For `O=S(=O)(Nc1cc(-c2ccc3nccc(N4CCOCC4)c3c2)cnc1Cl)N1CCOCC1` [Example 124, N-(2-chloro-5-(4-morpholinoquinolin-6-yl)pyridin-3-yl)morpholine-4-sulfonamide], the affinity at PI3Kα corresponds to a Ki of 0.0046 µM. Besides, the IC50 at mTOR stood at 0.0143 µM; in test [1] it was 0.0399 µM.

In turn, `CN(C)S(=O)(=O)Nc1cc(-c2ccc3nccc(Cl)c3c2)cnc1Cl` [Example 125, N′-(2-chloro-5-(4-chloro-6-quinolinyl)-3-pyridinyl)-N,N-dimethylsulfamide] displayed an inhibition constant (Ki) on PI3Kα of 0.0033 µM. The IC50 is 0.0077 µM on mTOR and 0.723 µM in test [1].

For `COCCN(C)c1ccnc2ccc(-c3cnc(Cl)c(NS(=O)(=O)N(C)CCOC)c3)cc12` [Example 126, N′-(2-chloro-5-(4-((2-methoxyethyl)(methyl)amino)-6-quinolinyl)-3-pyridinyl)-N-(2-methoxyethyl)-N-methylsulfamide], the Ki on PI3Kα was 0.0801 µM. Moreover, the IC50 came out at 0.134 µM at mTOR and 0.669 µM in test [1].

Turning to `O=S(=O)(Nc1cc(-c2ccc3c(c2)OCCO3)cnc1Cl)c1ccc(F)cc1` [Example 128, N-(2-Chloro-5-(2,3-dihydrobenzo[b][1,4]dioxin-6-yl)pyridin-3-yl)-4-fluorobenzenesulfonamide], on PI3Kα, the inhibition constant (Ki) was 0.0333 µM. For the same compound, the results for the IC50 (at mTOR; in test [1]) were 0.0527 µM and 20.4 µM, respectively.

At PI3Kα, `CN(C)S(=O)(=O)Nc1cc(-c2ccc3ncc(=O)n(-c4ccccc4)c3c2)cnc1Cl` [Example 130, N-(2-chloro-5-(3-oxo-4-phenyl-3,4-dihydroquinoxalin-6-yl)pyridin-3-yl)dimethylaminosulfonamide] showed a Ki of 0.0025 µM. In addition, the concentration for half-maximal inhibition (IC50) worked out at 0.0012 µM against mTOR and 0.0087 µM in test [1].

For the compound `COCCN(C)S(=O)(=O)Nc1cc(-c2ccc3ncc(=O)n(-c4ccccc4)c3c2)cnc1Cl` [Example 131, N-(2-chloro-5-(3-oxo-4-phenyl-3,4-dihydroquinoxalin-6-yl)pyridin-3-yl) 2-methoxy-N-methylethanaminosulfonamide], at PI3Kα, the affinity corresponds to a Ki of 0.0032 µM. Also, the values for the IC50 (against mTOR; in test [1]) were 0.0076 µM and 0.0092 µM, respectively.

On PI3Kα, `COc1ccc(-n2c(=O)cnc3ccc(-c4cnc(Cl)c(NS(=O)(=O)N(C)C)c4)cc32)cn1` [Example 132, N-(2-chloro-5-(4-(6-methoxypyridin-3-yl)-3-oxo-3,4-dihydroquinoxalin-6-yl)pyridin-3-yl)dimethylaminosulfonamide] showed a Ki of 0.0022 µM. In addition, the IC50 stood at 0.0023 µM on mTOR and 0.0408 µM in test [1].

`CN(C)S(=O)(=O)Nc1cc(-c2ccc3ncc(=O)n(-c4cccc(C(F)(F)F)c4)c3c2)cnc1Cl` [Example 133, N-(2-chloro-5-(3-oxo-4-(3-(trifluoromethyl)phenyl)-3,4-dihydroquinoxalin-6-yl)pyridin-3-yl)dimethylaminosulfonamide] registered a Ki at PI3Kα of 0.0023 µM. Besides, the half-inhibitory concentration (IC50) at mTOR came to 0.0005 µM; in test [1], 0.0094 µM.

The compound `COCCN(C)S(=O)(=O)Nc1cc(-c2ccc3ncc(=O)n(-c4cccc(C(F)(F)F)c4)c3c2)cnc1Cl` [Example 134, N-(2-Chloro-5-(3-oxo-4-(3-(trifluoromethyl)phenyl)-3,4-dihydroquinoxalin-6-yl)pyridin-3-yl) 2-methoxy-N-methylethanamino sulfonamide] showed a Ki at PI3Kα of 0.0185 µM. Moreover, the IC50 against mTOR was found to be 0.0042 µM; in test [1], 0.0283 µM.

At PI3Kα, `CN(C)S(=O)(=O)Nc1cc(N2CCc3nccc(N4CCOCC4)c3C2)cnc1Cl` [Example 136, N′-(2-Chloro-5-(4-(4-morpholinyl)-7,8-dihydro-1,6-naphthyridin-6(5H)-yl)-3-pyridinyl)-N,N-dimethylsulfamide] gave a Ki of 0.111 µM. Further, the IC50 against mTOR is 0.065 µM; in test [1], 0.289 µM.
